Results from patent US7625950B2, “Amino-propanol derivatives as sphingosine-1-phosphate receptor modulator” (Novartis AG, priority 2003, dated 2009).
pEC50: −log10 of the molar value. Counter-ions that a name gives are not always drawn.

Experiments:
[1] = tested on: peripheral blood lymphocytes; assay: Blood lymphocyte depletion; format: in vivo; details: rats, p.o.
Experimental: B. In Vivo: Blood Lymphocyte Depletion
A compound of formula I or the vehicle is administered orally by gavage to rats. Tail blood for hematological monitoring is obtained on day −1 to give the baseline individual values, and at 2, 6, 24, 48 and 72 hours after application.

[2] = molecular target: T1, human S1P receptor EDG-1 (S1P1) (Homo sapiens, UniProt P21453); assay: S1P receptor profiling, GTP[γ-35S] binding SPA, S1P1; format: biochemical; details: for S1P1 mode of action (Agon. = agonist): GTP[γ-35S] binding SPA; for pEC50: GTP[γ-35S] binding to membrane protein of transfected CHO or RH7777 cells, SPA
T1 construct: expressed in transfected cells
Experimental: (§1) Sphingosine-1-Phosphate (S1P) Receptor Profiling
(§2) Agonist activities of compounds are tested on the human SIP receptors EDG-1 (S1P1), EDG-3 (S1P3), EDG-5 (S1P2), EDG-6 (S1P4) and EDG-8 (S1P5). […] The assay technology used is SPA (scintillation proximity based assay). Briefly, DMSO dissolved compounds are serially diluted and added to SPA-bead (Amersham-Pharmacia) immobilised SIP receptor expressing membrane protein (10-20 μg/well) in the presence of 50 mM Hepes, 100 mM NaCl, 10 mM MgCl2, 10 μM GDP, 0.1% fat free BSA and 0.2 nM GTP [γ-^35S] (1200 Ci/mmol). After incubation in 96 well microtiterplates at RT for 120 min, unbound GTP [γ-^35S] is separated by a centrifugation step. Luminescence of SPA beads triggered by membrane bound GTP [γ-^35S] is quantified with a TOP count plate reader (Packard). EC50s are calculated using standard curve fitting software. In this assay, the compounds of formula I have a binding affinity to S1P1 receptor <50 nM.

[3] = molecular target: T2, human S1P receptor EDG-3 (S1P3) (Homo sapiens, UniProt Q99500); assay: S1P receptor profiling, GTP[γ-35S] binding SPA, S1P3; format: biochemical; details: for S1P3 mode of action (Agon. = agonist): GTP[γ-35S] binding SPA; for pEC50: GTP[γ-35S] binding to membrane protein of transfected CHO or RH7777 cells, SPA
T2 construct: expressed in transfected cells
Experimental: as §1, §2

[4] = molecular target: T3, human S1P receptor EDG-6 (S1P4) (Homo sapiens, UniProt O95977); assay: S1P receptor profiling, GTP[γ-35S] binding SPA, S1P4; format: biochemical; details: for pEC50: GTP[γ-35S] binding to membrane protein of transfected CHO or RH7777 cells, SPA; for S1P4 mode of action (Agon. = agonist): GTP[γ-35S] binding SPA
T3 construct: expressed in transfected cells
T3 sequence (O95977 1-384): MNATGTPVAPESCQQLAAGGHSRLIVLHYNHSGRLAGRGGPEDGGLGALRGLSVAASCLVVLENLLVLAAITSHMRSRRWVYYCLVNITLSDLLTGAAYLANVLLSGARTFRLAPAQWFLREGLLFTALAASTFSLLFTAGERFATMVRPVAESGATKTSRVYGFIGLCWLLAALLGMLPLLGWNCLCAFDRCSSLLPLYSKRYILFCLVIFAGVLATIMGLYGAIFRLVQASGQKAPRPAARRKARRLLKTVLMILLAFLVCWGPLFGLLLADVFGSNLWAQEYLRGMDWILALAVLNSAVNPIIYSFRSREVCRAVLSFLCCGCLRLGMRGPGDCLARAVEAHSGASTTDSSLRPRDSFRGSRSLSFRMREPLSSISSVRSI
Experimental: as §1, §2

[5] = molecular target: T4, human S1P receptor EDG-8 (S1P5) (Homo sapiens, UniProt Q9H228); assay: S1P receptor profiling, GTP[γ-35S] binding SPA, S1P5; format: biochemical; details: for S1P5 mode of action (Agon. = agonist): GTP[γ-35S] binding SPA; for pEC50: GTP[γ-35S] binding to membrane protein of transfected CHO or RH7777 cells, SPA
T4 construct: expressed in transfected cells
Experimental: as §1, §2

T4 sequence (Q9H228 whole entry): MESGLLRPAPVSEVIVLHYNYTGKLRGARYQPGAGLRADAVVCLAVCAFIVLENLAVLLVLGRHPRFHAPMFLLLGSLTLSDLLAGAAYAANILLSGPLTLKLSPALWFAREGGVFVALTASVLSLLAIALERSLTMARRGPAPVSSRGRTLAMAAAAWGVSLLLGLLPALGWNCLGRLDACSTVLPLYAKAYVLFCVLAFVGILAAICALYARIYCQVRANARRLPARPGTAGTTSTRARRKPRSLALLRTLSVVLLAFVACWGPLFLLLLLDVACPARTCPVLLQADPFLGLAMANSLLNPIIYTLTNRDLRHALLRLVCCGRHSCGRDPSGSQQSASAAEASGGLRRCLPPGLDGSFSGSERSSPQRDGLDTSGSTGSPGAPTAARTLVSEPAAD
T2 sequence (Q99500 whole entry): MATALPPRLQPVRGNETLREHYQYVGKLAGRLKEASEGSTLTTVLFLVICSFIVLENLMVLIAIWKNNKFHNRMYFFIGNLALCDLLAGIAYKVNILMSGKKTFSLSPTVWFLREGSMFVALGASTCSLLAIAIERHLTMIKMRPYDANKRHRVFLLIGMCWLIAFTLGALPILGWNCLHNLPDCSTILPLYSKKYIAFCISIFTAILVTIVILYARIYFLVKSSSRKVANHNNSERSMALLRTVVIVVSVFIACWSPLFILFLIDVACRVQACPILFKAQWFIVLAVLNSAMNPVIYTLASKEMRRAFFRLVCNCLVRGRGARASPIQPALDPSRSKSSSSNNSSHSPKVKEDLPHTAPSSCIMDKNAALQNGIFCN
T1 sequence (P21453 whole entry): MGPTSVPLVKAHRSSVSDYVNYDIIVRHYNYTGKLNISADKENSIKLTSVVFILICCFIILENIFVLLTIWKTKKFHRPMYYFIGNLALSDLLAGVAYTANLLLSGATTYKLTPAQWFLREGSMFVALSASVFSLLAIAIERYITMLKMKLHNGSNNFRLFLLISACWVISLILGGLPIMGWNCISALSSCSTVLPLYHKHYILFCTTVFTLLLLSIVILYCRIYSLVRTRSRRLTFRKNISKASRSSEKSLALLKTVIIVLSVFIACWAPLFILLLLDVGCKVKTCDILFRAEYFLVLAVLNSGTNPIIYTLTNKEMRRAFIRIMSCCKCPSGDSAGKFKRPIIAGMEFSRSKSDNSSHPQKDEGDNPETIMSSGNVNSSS

Compound | S1P1 mode of action (Agon. = agonist) [2] | pEC50 [2] | S1P3 mode of action (Agon. = agonist) [3] | pEC50 [3] | pEC50 [4] | S1P5 mode of action (Agon. = agonist) [5] | pEC50 [5] | S1P4 mode of action (Agon. = agonist) [4] | dose giving depletion of peripheral blood lymphocytes by more than 50% ([1]; after 6 h) [mg/kg] | dose giving depletion of peripheral blood lymphocytes by more than 50% ([1]; after 24 h) [mg/kg] | dose giving depletion of peripheral blood lymphocytes by more than 50% ([1]; after 48 h) [mg/kg]
C[C@](N)(CO)CCc1ccc(OCCOc2ccc(Cl)cc2)cc1 [Example 1, (R)-2-Amino-4-{4-[2-(4-chloro-phenoxy)-ethoxy]-phenyl}-2-methyl-butan-1-ol Hydrochloride] |  |  |  |  |  |  |  |  | 0.03 | 0.02 | 
C[C@@](N)(CCc1ccc(OCCOc2ccccc2)cc1)COP(=O)(O)O [Example 38] | Agon. | 8.07 |  | < 6.00 | 7.55 | Agon. | 7.93 | Agon. |  |  | 
COc1ccc(Br)cc1OCCCOc1ccc(CC[C@@](C)(N)CO)cc1 [Example 53, (R)-2-Amino-4-{4-[3-(5-bromo-2-methoxy-phenoxy)-propoxy]-phenyl}-2-methyl-butan-1-ol Hydrochloride] |  |  |  |  |  |  |  |  | 0.1 |  | 0.5

Second part, led by results:

S1P1 mode of action (Agon. = agonist) [2] | pEC50 [2] | S1P3 mode of action (Agon. = agonist) [3] | pEC50 [3] | pEC50 [4] | S1P5 mode of action (Agon. = agonist) [5] | pEC50 [5] | S1P4 mode of action (Agon. = agonist) [4] | Compound | dose giving depletion of peripheral blood lymphocytes by more than 50% ([1]; after 6 h) [mg/kg] | dose giving depletion of peripheral blood lymphocytes by more than 50% ([1]; after 24 h) [mg/kg] | dose giving depletion of peripheral blood lymphocytes by more than 50% ([1]; after 48 h) [mg/kg]
Agon. | 9.22 | Agon. | 7.82 | < 6.00 | Agon. | 7.85 |  | C[C@@](N)(CCc1ccc(OCCOc2ccc(Cl)cc2)cc1)COP(=O)(O)O [Example 36, (R)-Mono-(2-amino-4-{4-[2-(4-chloro-phenoxy)-ethoxy]-phenyl}-2-methyl-butyl) phosphate] |  |  | 
Agon. | 8.26 |  | < 6.00 | 8.09 | Agon. | 8.20 | Agon. | C[C@@](N)(CCc1ccc(OCCOc2cccc(F)c2F)cc1)COP(=O)(O)O [Example 42] |  |  | 
Agon. | 8.10 | Agon. | 6.47 | 7.37 | Agon. | 9.30 | Agon. | COc1cc(CC[C@@](C)(N)COP(=O)(O)O)ccc1OCCOc1ccccc1 [Example 43] |  |  | 
Agon. | 8.07 | Agon. | < 5.00 | 8.80 | Agon | 7.78 | Agon. | COc1ccc(Br)cc1OCCCOc1ccc(CCC(N)(CO)COP(=O)(O)O)cc1 (centres unmarked) [Example 56] |  |  | 
